From US20250120988A1, “SMALL MOLECULE COMPOUND FOR TREATING ISCHEMIC STROKE, ITS PREPARATION METHOD, AND APPLICATION” (SHANGHAI SIXTH PEOPLE'S HOSPITAL, priority 2023, published 2025)

Experiments:
MCAO model = test: MCAO cerebral ischemia model, rotarod motor function test; assay type: in vivo, mice; conditions: 30 mg/kg, seven days after brain injury
Method: Figure a illustrates the experimental process, where drug intervention (using a concentration of 30 mg/kg of LK-2) was conducted 30 minutes after modeling, and the first brain function test (rotarod test) was performed 24 hours after modeling. The second brain function test was conducted 7 days later, with 5 training tests followed by 1 formal test in each rotarod test. Figure b illustrates the time taken for mice to fall off the rotarod during the 5 training tests, where longer time indicates better motor function. […] Figure c illustrates the analysis results of motor ability in the formal test conducted 24 hours and 7 days after modeling for each group of mice. • 3.4 The animal model of cerebral ischemic stroke, known as the middle cerebral artery occlusion (MCAO) model, is a classic model used to simulate individual patients with ischemic stroke, and evaluate the size of cerebral infarction and motor function (evaluate through the rotarod test, including assessment of motor learning and coordination, the experimental design process is illustrated in FIG. 8a) in model animals after drug intervention. The specific steps are as follows: a transient focal ischemic model was formed by occluding the middle cerebral artery for 30 minutes in wild-type or ASIC1a gene knockout mice. […] In this test, mice were placed on the rotating rod and the time to fall was recorded. […]

GluN1+NR2A = target: T1, GluN1+NR2A (Homo sapiens, UniProt Q05586+Q12879); test: Whole-cell patch clamp, blocking of GluN1+NR2A NMDAR current in CHO cells; assay type: cell-based; conditions: 100 μM NMDA and 1 μM glycine, read-out: IC50 of competitive antagonism against glutamate binding GluN1+NR2A currents
T1 construct: expressed in transfected cells; host or cells: CHO cells
T1 sequence (Q12879 23-1464, other chains not shown): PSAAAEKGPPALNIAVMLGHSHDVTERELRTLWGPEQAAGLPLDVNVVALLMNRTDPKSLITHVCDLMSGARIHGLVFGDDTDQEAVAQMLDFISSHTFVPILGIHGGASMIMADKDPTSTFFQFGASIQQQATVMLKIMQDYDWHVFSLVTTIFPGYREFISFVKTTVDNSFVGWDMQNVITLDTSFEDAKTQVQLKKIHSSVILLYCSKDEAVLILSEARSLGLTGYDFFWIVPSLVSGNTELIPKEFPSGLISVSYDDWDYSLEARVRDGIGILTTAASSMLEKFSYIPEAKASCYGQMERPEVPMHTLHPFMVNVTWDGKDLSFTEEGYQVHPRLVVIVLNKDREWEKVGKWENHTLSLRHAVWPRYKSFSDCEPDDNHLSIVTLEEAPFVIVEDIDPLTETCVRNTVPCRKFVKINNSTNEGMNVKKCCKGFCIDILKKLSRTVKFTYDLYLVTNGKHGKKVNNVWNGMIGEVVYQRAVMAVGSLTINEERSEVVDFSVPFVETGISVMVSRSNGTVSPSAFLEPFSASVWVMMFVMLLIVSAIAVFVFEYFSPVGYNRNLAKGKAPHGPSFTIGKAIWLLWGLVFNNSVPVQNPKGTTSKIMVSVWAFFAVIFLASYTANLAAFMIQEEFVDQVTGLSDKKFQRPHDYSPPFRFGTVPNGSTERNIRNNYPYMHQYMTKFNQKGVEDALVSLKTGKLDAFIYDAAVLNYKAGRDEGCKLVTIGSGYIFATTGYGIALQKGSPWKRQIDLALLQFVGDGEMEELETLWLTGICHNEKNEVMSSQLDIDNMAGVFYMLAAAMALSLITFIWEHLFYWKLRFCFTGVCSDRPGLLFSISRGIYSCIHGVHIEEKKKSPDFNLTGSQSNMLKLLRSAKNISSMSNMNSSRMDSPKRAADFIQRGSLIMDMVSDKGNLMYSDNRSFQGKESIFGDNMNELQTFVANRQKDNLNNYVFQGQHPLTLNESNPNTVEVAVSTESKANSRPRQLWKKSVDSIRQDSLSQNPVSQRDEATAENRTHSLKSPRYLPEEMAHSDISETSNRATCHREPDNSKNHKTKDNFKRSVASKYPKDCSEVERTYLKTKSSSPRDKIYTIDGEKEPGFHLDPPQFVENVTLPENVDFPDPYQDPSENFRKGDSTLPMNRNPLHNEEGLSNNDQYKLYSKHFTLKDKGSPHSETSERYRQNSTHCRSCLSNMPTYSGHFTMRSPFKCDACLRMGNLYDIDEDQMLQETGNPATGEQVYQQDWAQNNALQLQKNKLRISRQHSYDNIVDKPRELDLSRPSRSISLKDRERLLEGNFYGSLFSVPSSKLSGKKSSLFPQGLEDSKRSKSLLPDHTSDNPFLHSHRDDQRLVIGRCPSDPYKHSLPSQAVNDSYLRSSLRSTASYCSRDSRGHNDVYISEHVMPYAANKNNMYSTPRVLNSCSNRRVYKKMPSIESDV
Method: Figure a illustrates LK-2 concentration-dependent blocking of signal of GluN1+GluN2A and GluN1+GluN2B subtypes of NMDAR currents (recorded from the same CHO cell) in patch clamp experiments, with 100 μM NDMA and 1 μM glycine used to activate NMDAR currents. LK-2 concentrations were 1, 10, 100, and 500 μM in sequence. Figure b illustrates the dose-response curves fitted based on the current amplitudes recorded in Figure a, with IC50 representing the half-maximal inhibitory concentration. Smaller IC50 values indicate stronger blocking effects of the compound.
[drawing 3] • 2. Electrophysiological experiments refer to the use of patch clamp techniques to overexpress ASICs (ASIC1a) and NMDARs (GluNR1+NR2A or GluNR1+NR2B) in CHO cell lines (Chinese hamster ovary cells), with the above-mentioned proteins carrying GFP green fluorescent protein for identification under fluorescence microscopy. The synthesized small molecules are separately tested for their blocking effects on the currents generated by the two types of receptors, and the IC50 values are calculated. • 2.1 The experimental steps of the membrane clamp technique are as follows.
Whole-cell patch clamp recordings were performed on neurons or CHO cells cultured in a cell-culture dish mounted on a fixed stage upright microscope. The recording electrode (resistance 4-6 MΩ) was made of 1.5 mm borosilicate glass. […]

What does the source list for `O=C(O)C1CN(C(c2ccccc2)P(=O)(O)O)CCN1` (stereo not drawn) [LK-2]?
motor learning ability (MCAO model; rotarod training tests): significant improvement; overall improvement in motor function (MCAO model; rotarod): 51.6%; IC50 (GluN1+NR2A): 93.1 ± 28.3 µM
